{"source": "paper PMC8673480", "about": "(Journal of medicinal chemistry, 2021)", "key": {"[1]": {"assay": "Nonspecific cytotoxic effects / in vitro cytotoxicity", "assay_type": "cell-based", "settings": "human, HEK293T cells"}, "SARS-CoV-2 3CLpro": {"molecular_target": "SARS-CoV-2 3CLpro (Severe acute respiratory syndrome coronavirus 2, UniProt P0DTD1)", "assay": "biochemical", "assay_type": "biochemical"}, "MERS-CoV 3CLpro": {"molecular_target": "MERS-CoV 3CLpro (Middle East respiratory syndrome-related coronavirus, UniProt K9N7C7)", "sequence (K9N7C7 3248-3553 limits assumed)": "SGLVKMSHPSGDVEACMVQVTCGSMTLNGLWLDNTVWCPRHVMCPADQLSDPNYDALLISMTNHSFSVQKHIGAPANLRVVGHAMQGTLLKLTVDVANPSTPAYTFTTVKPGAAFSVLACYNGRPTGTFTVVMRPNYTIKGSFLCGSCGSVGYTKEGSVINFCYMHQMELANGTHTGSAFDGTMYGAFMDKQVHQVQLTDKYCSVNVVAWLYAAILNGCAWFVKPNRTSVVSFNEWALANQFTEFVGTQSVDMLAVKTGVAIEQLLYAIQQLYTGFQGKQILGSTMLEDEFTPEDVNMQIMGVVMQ", "assay": "biochemical"}, "PRRSV": {"test_system": "PRRSV", "assay": "Inhibition of replication of PRRSV", "assay_type": "cell-based, porcine respiratory and reproductive syndrome virus (PRRSV)"}}}
{"smiles": "CCCC1CCC(COC(=O)NC(CC(C)C)C(=O)NC(C=O)CC2CCNC2=O)CC1", "note": "[Compound 8b, ((1r,4R)-4-Propylcyclohexyl) methyl ((2S)-4-methyl-1-oxo-1-(((2S)-1-oxo-3-(2-oxopyrrolidin-3-yl)propan-2-yl)amino)pentan-2-yl) carbamate]", "values": [{"measurement": "CC50 at 72 h", "setting": "[1]", "value": "43 ± 9", "unit": "µM"}, {"measurement": "IC50", "setting": "SARS-CoV-2 3CLpro", "value": "0.2 ± 0.03", "unit": "µM"}, {"measurement": "IC50", "setting": "MERS-CoV 3CLpro", "value": "0.06 ± 0.01", "unit": "µM"}]}
{"smiles": "CC(C)C[C@H](NC(=O)OC(C)(C)C1CCC(F)(F)CC1)C(=O)N[C@@H](C[C@@H]1CCNC1=O)C(O)S(=O)(=O)[O-].[Na+]", "note": "(stereo partly drawn) [Compound 13c, Sodium (2S)-2-((S)-2-((((2-(4,4-difluorocyclohexyl)propan-2-yl)oxy)carbonyl)amino)-4-methylpentanamido)-1-hydroxy-3-((S)-2-oxopyrrolidin-3-yl)propane-1-sulfonate]", "values": [{"measurement": "IC50 higher than those of 12b and 14c", "setting": "SARS-CoV-2 3CLpro", "value": "~ 4 fold"}]}
{"smiles": "CC(C)C[C@H](NC(=O)OCc1ccccc1)C(=O)N[C@@H](C[C@@H]1CCNC1=O)C(O)S(=O)(=O)[O-].[Na+]", "note": "(some centres unmarked) [GC376]", "values": [{"measurement": "inhibition of the replication of PRRSV", "setting": "PRRSV", "value": "none of them resulted in the reduction of viral replication"}]}
